# Reference: patent US5702728A, “Clam extract preparation, the method of preparation and use thereof” (priority 1993, dated 1997)
# Experiments:
# [1] = tested on: Pain Threshold of Tail Roots of Mice Caused by Electric Irritation; test: Pain threshold of tail roots of mice, electric irritation; type: in vivo; conditions: 7.5 mg/kg; for Pain threshold: before medication 0.22 ± 0.08, P < 0.05; for Increasing percentage of the pain threshold: intrarectal, P < 0.01 vs control
# Protocol: (§1) The purpose of the test is to observe effects of the suppository prepared by the clam extract composition of the invention on pains of mice caused by chemical and electric irritation, and the time of initiation and duration of the effect.
# (§2) The clam extract composition of the invention was dissolved in 2 mol acetic acid and the pH value was adjusted to be 6.5~7.0. Then normal saline in an adequate amount was added.
# (§3) Indomethacin: produced by Nantong Second Pharmaceutical Factory, with the lot number of 860321, which was formulated into a suspension with 2% of water-soluble starch paste.
# An electric stimulator of Model NEN-7103, and an isolator of Model SS-102J, made in Japan.
# After fasting for 12 hours, 50 mice were randomly allotted into 5 groups based on their body weight and sex. The root of mouse's tail was stimulated with electric current of square wave (10 ms of pulse width and 1 Hz of the frequency). The pain threshold was determined as the electric intensity which just makes the mouse screaming. The drug was intrarectally administered with the volume of 0.05 ml per mouse. […]
# [2] = tested on: Body Torsion Reaction of Mice Caused by Acetic Acid; test: Body torsion reaction of mice caused by acetic acid, intrarectal administration; type: in vivo; conditions: 7.5 mg/kg
# Protocol: as §1, §2, §3
# After fasting for 12 hours, 60 mice were randomly allotted into 6 groups based on their body weight and sex. The drug was intrarectally administered in the dosage indicated in Table 3 and the volume of drug administered was 0.05 ml per mouse. 35 minutes later, 0.20 ml of 0.6% acetic acid was intraperitoneally injected to each mouse. The number of body torsion reactions (abdominal excavation, extension of trunk and hind limbs, and elevation of buttock) observed within 15 minutes after the injection of acetic acid was recorded.
# [3] = tested on: Body Torsion Reaction of Mice Caused by Acetic Acid; test: Body torsion reaction of mice caused by acetic acid, oral administration; type: in vivo, Kunming strain mice; conditions: 0.03 (head mg/kg; text 30 mg/kg)
# Protocol: Clam extract composition of the invention was dissolved in 2N acetic acid and the pH value was adjusted to be 6.5~7.0. The normal saline in an adequate amount was added to formulate a solution. Indomethacin: produced by Shijiazhuang Pharmaceutical Factory, with the lot number of 009011021, which was formulated into a suspension with 2% of starch paste.
# Kunming strain mice, male and female, with body weight of 20±2 g, provided by the Department of Animals of Beijing Medical University.
# Fifty mice were randomly allotted into 5 groups based on their body weight and sex. In the control group, 0.2 ml/kg body weight of normal saline was administered per oral; while in the positive group, 30 mg/kg of indomethacin was administered per oral. […] 90 minutes later, 0.2 ml of 0.6% acetic acid per mouse was intraperitoneally injected and the number of body torsion reactions (abdominal excavation, extension of trunk and hind limbs, and elevation of buttock) of the mouse observed within 15 minutes after the injection of acetic acid was recorded.
structure (smiles),measurement,setting,value
COc1ccc2c(c1)c(CC(=O)O)c(C)n2C(=O)c1ccc(Cl)cc1 [Indomethacin],Pain threshold,"[1]; 20 min, control 0.25 ± 0.08",0.32 ± 0.06 mA
same,Pain threshold,"[1]; 40 min, control 0.28 ± 0.11",0.41 ± 0.12 mA
same,Pain threshold,"[1]; 60 min, control 0.26 ± 0.13",0.44 ± 0.15 mA
same,Pain threshold,"[1]; 90 min, control 0.26 ± 0.13",0.41 ± 0.13 mA
same,Pain threshold,"[1]; 120 min, control 0.25 ± 0.11",0.38 ± 0.13 mA
same,Increasing percentage of the pain threshold,[1]; 20 min,37.4 ± 18.4 percentage
same,Increasing percentage of the pain threshold,[1]; 40 min,71.4 ± 39.4 percentage
same,Increasing percentage of the pain threshold,[1]; 60 min,86.3 ± 45.9 percentage
same,Increasing percentage of the pain threshold,[1]; 90 min,72.5 ± 59.1 percentage
same,Increasing percentage of the pain threshold,[1]; 120 min,69.6 ± 62.3 percentage
same,Inhibition rate,[2],93.1%
same,Number of body torsions,[2]; control 39.3 ± 14.4,2.7 ± 4.1 n
same,Inhibition rate,[3],93.7%
same,Number of body torsions,"[3]; control 44.1 ± 12.8, P < 0.01",2.8 ± 4.8 n
